Data: patent publication US11819535B2, “Composition and methods for regulating extracellular matrix accumulation” (UNIVERSITY HEALTH NETWORK, priority 2018, dated 2023)

Assays:
[1] = system: SMAD3; experiment: SMAD3 luciferase reporter in dPHFs; type: cell-based, human; conditions: for SMAD3 dependent transcription: in response to TGF-B1, caffeic acid 40 uM, WZB-117 10 uM, 2-DG 2 mM
Protocol: SMAD3 luciferase reporter was constructed as previously described^26. Oligos containing SMAD3 binding sites were designed with BamH1 and Sal1 digestion sites. Forward: 5′-[…]-3′, reverse: 5′-[…]-3′. SMAD oligoes were inserted into a p-delta-51 LUC II reporter. dPHFs were electroporated with construct using an Amaxa mouse neural stem cell nucleofactor kit (Lonza). 24 hours after electroporation, cells were treated as above (cell culture) for 24 hours and lysed to assess for luciferase and renilla activity. Relative luciferase activity was defined as the level of luciferase bioluminescence divided by renilla bioluminescence for each sample.

[2] = system: dermal primary human fibroblasts (dPHFs); experiment: Western blot of fibronectin, collagen-1 and PAI-1 in dermal primary human fibroblasts; type: cell-based; conditions: for extracellular levels of fibronectin, collagen-1, and PAI-1 (ECM proteins): Etomoxir 10 uM, BAY-876 40 nM, FIG. 2A; for effect on intracellular levels of fibronectin and collagen-1 / effect on downregulation of extracellular fibronectin and collagen-1 by caffeic acid: caffeic acid (40 uM) treated dPHFs; for effect on downregulation of extracellular fibronectin and collagen-1 by caffeic acid: in a dose dependent manner
[3] = system: radiation-induced skin fibrosis; experiment: Murine radiation-induced skin fibrosis model; type: in vivo, mice
Source text: All animal procedures were approved by Animal Care Committee at the University Health Network under AUP 3422. A murine skin fibrosis model was created by radiating the hindlimb of C3H/HeJ mice (Jackson Laboratory) or B6.12951-Cd36^tm1Mfe/J mice (Jackson Laboratory) using an XRAD 225Cx (Precision X-Ray) and a 2.5 cm collimator. Prior to irradiation, fluoroscopic imaging was used to confirm and standardize the irradiation site. 40 Gy for C3H mice or 30 Gy for B6 mice was divided equally on the dorsal and ventral side of the leg. Animals were randomized into groups for treatment by a researcher blinded to treatment assignment. For CD36^high cell treatment, 1×10^6 cells in 100 ul PBS were injected into the hindlimb subdermally at 3 sites weekly for 3 weeks starting at 4 weeks post-irradiation. For caffeic acid phenethyl ester treatment, 10 mg/kg was given by intraperitoneal injection by a researcher blinded to treatment. Caffeic acid phenethyl ester or vehicle control was given 3× per week for 10 weeks starting at 1 week post-irradiation. Leg contracture measurement was performed, as previously published^21, after first sedating mice with inhalation anesthesia and ensuring deep sedation through no pain reflex and no muscle tone. Then mice hips were fixed on a custom apparatus. 0.1N equivalent weight was then used to extend the fibrotic and contralateral normal leg and leg extension was measured using a standardized ruler by two assessors blinded to treatment groups. Percentage leg contracture was calculated as 1−leg extension of fibrotic leg/leg extension of contralateral normal leg. Leg contracture was measured biweekly and averaged for the week.
Formalin-fixed, paraffin-embedded 8 um sections treated with Masson's Trichrome Stain were whole slide scanned using Aperio ScanScope XT. Analysis was performed by a researched blinded to treatment. Using ImageJ, whole slide scanned images were loaded using the […] plugin, and then stacked to RGB. Colour deconvolution was used to separate the full-colour images into their red, green and blue components. A threshold of pixel intensity was optimized and set and standardized for all images. A ratio of blue (trichrome) to red (nuclear) pixel density was derived for each image, representing collagen to cell ratio.

[4] = system: dermal primary human fibroblasts (dPHFs); experiment: DQ-collagen-1 / lysotracker co-localization in dPHFs; type: cell-based; conditions: TGF-B1 3 ng/ml; caffeic acid 40 uM
[5] = system: dermal primary human fibroblasts (dPHFs); experiment: FAO and glycolysis functional assessment (Seahorse) in dPHFs; type: cell-based; conditions: TGF-B1 stimulated dPHFs
Protocol: FAO and Glycolysis Functional Assessment for dPHFs • Seahorse experiments were performed on an XFe96 analyzer (Aligent) based on manufacturer's instructions. dPHFs were prepared as per above (cell culture) on an XF96 culture plate. For glycolysis profiling, final concentration of glucose (1 mM or 10 mM), oligomycin (1 uM), and 2-DG (100 mM) was utilized. For FAO, palmitate sodium (Sigma) and BSA-fatty acid free (Sigma) were used to make palmitate-BSA (0.17 mM) as per manufacturer's instructions. Etomoxir (Tocris) 40 uM final concentration was used.

[6] = system: dermal primary human fibroblasts (dPHFs); experiment: Lysosome quantification (LysoTracker) and TFEB expression in dPHFs; type: cell-based; conditions: TGF-B1 3 ng/ml; caffeic acid 40 uM
Protocol: dPHFs were treated as per above (cell culture) and exposed to LysoTracker (ThermoFisher) as per manufacturer's instructions on a 4 chamber cover glass system (ThermoFisher). Images were obtained using an Olympus Fluoview laser-scanning confocal microscope. Fluorescence intensity was quantitated per cell using the Object Identification module and Measurement function of Volocity software. Cell area was measured using ImageJ software.

[7] = system: dermal primary human fibroblasts (dPHFs); experiment: qRT-PCR gene expression profiling in dPHFs; type: cell-based; conditions: caffeic acid 40 uM
Protocol: dPHFs obtained from ATCC (PCS-201-012) were cultured in DMEM with 5% FBS. Mesenchymal cells were isolated primarily from C3H or B6 mice. Animals were euthanized and intraperitoneal fat or skin was dissected and minced. Collagenase and hyaluronidase (Stem cell technologies) digestion was performed in a rotating oven at 37 C for 1 hour, passed through a 70 uM filter, and then plated in DMEM+10% FSB to expand the mesenchymal population. Cells were starved for 12 hours in MEM media prior to treatment with TGF-B1 (Sigma), caffeic acid (Sigma), dichloroacetic acid (Sigma), PDGF-BB (R&D Systems), and/or etomoxir (Tocris). All protein and mRNA profiling was performed at 24 hours post-treatment except for PDGF-BB, which was performed at 48 hours post-treatment.
For human and murine skin samples, skin samples were macrodissected and snap frozen in liquid nitrogen and stored at −80° C. For in vitro experiments, cells were trypsinized and either snap frozen in liquid nitrogen or immediately underwent RNA extraction. All RNA was extracted using the RNeasy Mini Kit (Qiagen) according to manufacturer instructions. RNA quality was measured and quantified using either the NanoDrop 2000c Spectrophotometer (Thermo Scientific); we used either A260/280 for cell samples, or RIN for human and murine samples using a 2100 bioanalyzer (Aligent). cDNA was synthesized from normalized amounts of RNA using random hexamer primers and SuperScript III (Invitrogen) on a PTC-200 Peltier Thermal Cycler. Primers were obtained from peer-reviewed publications whenever possible. See Table S1 for references and amplicon size. Primers were validated through BLASTing to ensure specificity, size confirmation by gel electrophoresis at first time use, and by melting curve assessment for all reactions. PCR efficiency was measured using a standard curve through the dilution of a representative sample to determine the linear range of cDNA amounts for qRT-PCR reactions. qRT-PCR reactions were performed on 384-well plates (Applied Biosystems) using SYBR Green PCR Master Mix (Applied Biosystems). The analysis was run on the 7900HT Fast Real-Time PCR System (Applied Biosystems). Reaction conditions for cDNA synthesis and qRT-PCR are found in supplementary data Table S2 and S3 respectively. A no template control was used to monitor contamination and false positive results from primer-dimers. Results of no template controls were confirmed to have higher CT-values and distinct melting curves compared to template reactions. 18S ribosomal RNA was used as an internal control. A 2^−ΔΔCT method was used for relative quantification and for graphical representation in figures. Statistical analysis was performed on biological replicates using Relative Expression Software Tool (REST)^24 set to default parameters.

[8] = system: CD36; experiment: CD36 gene (qRT-PCR) and surface (flow cytometry) expression in dPHFs; type: cell-based, human
Protocol: For human and murine skin samples, skin samples were macrodissected and snap frozen in liquid nitrogen and stored at −80° C. For in vitro experiments, cells were trypsinized and either snap frozen in liquid nitrogen or immediately underwent RNA extraction. All RNA was extracted using the RNeasy Mini Kit (Qiagen) according to manufacturer instructions. RNA quality was measured and quantified using either the NanoDrop 2000c Spectrophotometer (Thermo Scientific); we used either A260/280 for cell samples, or RIN for human and murine samples using a 2100 bioanalyzer (Aligent). cDNA was synthesized from normalized amounts of RNA using random hexamer primers and SuperScript III (Invitrogen) on a PTC-200 Peltier Thermal Cycler. Primers were obtained from peer-reviewed publications whenever possible. See Table S1 for references and amplicon size. […] PCR efficiency was measured using a standard curve through the dilution of a representative sample to determine the linear range of cDNA amounts for qRT-PCR reactions. qRT-PCR reactions were performed on 384-well plates (Applied Biosystems) using SYBR Green PCR Master Mix (Applied Biosystems). […] A 2^−ΔΔCT method was used for relative quantification and for graphical representation in figures. […]

[9] = mice with skin fibrosis, CAPE IP 10 mg/Kg 3 times per week for 10 weeks
[10] = TGF-B1 treated dPHFs, caffeic acid 40 uM

O=CC[C@@H](O)[C@H](O)[C@H](O)CO [2-DG, 2-deoxy-d-glucose]
SMAD3 dependent transcription [1]: inhibited | extracellular levels of fibronectin, collagen-1, and PAI-1 (ECM proteins) ([2]; dPHFs, WZB-117 10 uM): downregulation

Cc1c(NC(=O)c2cc(C(N)=O)nc3cc(F)ccc23)c(C(F)(F)F)nn1Cc1ccc(C#N)cc1 [BAY-876]
extracellular levels of fibronectin, collagen-1, and PAI-1 (ECM proteins) ([2]; dPHFs, WZB-117 10 uM): downregulation

O=C(/C=C/c1ccc(O)c(O)c1)OCCc1ccccc1 [CAPE, caffeic acid phenethyl ester]
fibronectin, collagen-1 and PAI-1 ([2]; TGF-B1 (3 ng/ml) treated dPHFs, CAPE 5 uM): downregulate | functional and histological evidence of fibrosis severity (leg contracture, trichrome) ([3]; CAPE IP 10 mg/Kg 3 times per week for 10 weeks): significantly reduced | PPAR signaling in skin [3, 9]: upregulated | expression of CD36 in skin [3, 9]: upregulated | CD36 expression in vimentin+ (mesenchymal) cells, co-immunofluorescence ([3]; mice with skin fibrosis, CAPE treatment): increase

Cl.N [NH4Cl]
effect on intracellular levels of fibronectin and collagen-1 [2]: no effect | effect on downregulation of extracellular fibronectin and collagen-1 by caffeic acid [2]: inhibit

O=C(Oc1cccc(F)c1OC(=O)c1cccc(O)c1)c1cccc(O)c1 [WZB-117]
SMAD3 dependent transcription [1]: inhibited | extracellular fibronectin, collagen-1 and PAI-1 protein levels ([2]; TGF-B1 3 ng/ml, WZB-117 10 uM, even in dPHFs lacking PPARG and ACOX1): reduced | extracellular levels of fibronectin, collagen-1, and PAI-1 (ECM proteins) ([2]; dPHFs, WZB-117 10 uM): downregulation

O=C(O)/C=C/c1ccc(O)c(O)c1 [caffeic acid]
co-localization between DQ-collagen-1 and lysosomes [4]: significant increase | functional shift of metabolism (glycolysis vs FAO) [5]: functionally shifted metabolism from glycolysis to FAO | SMAD3 dependent transcription [1]: reduced | expression of TFEB and lysosomes in dPHFs [6]: increasing | extracellular fibronectin and collagen-1 [2, 10]: markedly downregulated | intracellular and extracellular PAI-1 [2, 10]: reduced | PPAR genes expression ([7]; TGF-B1 (3 ng/ml) treated dPHFs): upregulated | glycolysis genes expression ([7]; TGF-B1 (3 ng/ml) treated dPHFs): downregulated | FN1 and COL1A1 expression ([7]; TGF-B1 stimulated fibroblasts): moderately decreased | expression of PAI ([7]; TGF-B1 stimulated fibroblasts): significantly downregulated | CD36 gene and surface expression ([8]; TGF-B1 stimulated dPHFs, caffeic acid 40 uM): restored

CCN(CC)CCCC(C)Nc1ccnc2cc(Cl)ccc12 (stereo not shown) [chloroquine]
effect on intracellular levels of fibronectin and collagen-1 [2]: no effect | effect on downregulation of extracellular fibronectin and collagen-1 by caffeic acid [2]: inhibit

CCOC(=O)[C@@]1(CCCCCCOc2ccc(Cl)cc2)CO1 [etomoxir]
rescue of WZB-117 and 2-DG inhibition of SMAD3 dependent transcription ([1]; TGF-B1 + WZB-117 or 2-DG + etomoxir 10 uM): not rescued | effect on caffeic acid's reduction of SMAD3 dependent transcription ([1]; TGF-B1 + caffeic acid 40 uM + etomoxir 10 uM): inhibited | effect on the downregulation of pro-fibrotic proteins by caffeic acid ([2]; TGF-B1 + caffeic acid 40 uM + etomoxir, dPHFs): inhibited | extracellular levels of fibronectin, collagen-1, and PAI-1 (ECM proteins) ([2]; dPHFs, WZB-117 10 uM): elevation | CD36 surface expression ([8]; dPHFs, Etomoxir 10 uM for 24 hours): downregulated
